# Measurements taken from ChEMBL document CHEMBL5150076, “Discovery of Novel Orally Bioavailable Triazoles with Potent and Broad-Spectrum Antifungal Activity In Vitro and In Vivo” (J Med Chem, 2022).
# Active and inactive are the calls of the source. The rule behind the calls is not given here.
# Tests used:
# [1] = test system: Cryptococcus neoformans; assay: Antifungal activity against Cryptococcus neoformans H99 incubated for 72 hrs by microbroth dilution method; assay type: functional
# [2] = test system: Candida albicans; assay: Antifungal activity against Candida albicans SC5314 incubated for 24 hrs by microbroth dilution method; assay type: functional
# [3] = test system: Aspergillus fumigatus; assay: Antifungal activity against Aspergillus fumigatus 7544 incubated for 48 hrs by microbroth dilution method; assay type: functional
# [4] = test system: Candida albicans; assay: Antifungal activity against Candida albicans Y0109; assay type: functional
# [5] = test system: Candida parapsilosis; assay: Antifungal activity against Candida parapsilosis 22019; assay type: functional; details: Lodderomyces parapsilosis
# [6] = test system: Cryptococcus neoformans; assay: Antifungal activity against Cryptococcus neoformans 32605; assay type: functional
# [7] = test system: Nakaseomyces glabratus; assay: Antifungal activity against Candida glabrata 537; assay type: functional
# [8] = test system: Trichophyton rubrum; assay: Antifungal activity against Trichophyton rubrum cmccftla; assay type: functional
# [9] = test system: Nannizzia gypsea; assay: Antifungal activity against Microsporum gypseum; assay type: functional
# [10] = test system: Candida albicans; assay: Antifungal activity against Candida albicans 12#; assay type: functional
# [11] = test system: Candida albicans; assay: Antifungal activity against Candida albicans 25#; assay type: functional
# [12] = test system: Candida albicans; assay: Antifungal activity against Candida albicans 162; assay type: functional
# [13] = test system: Candida albicans; assay: Antifungal activity against Candida albicans 14#; assay type: functional
# [14] = test system: Candida albicans; assay: Antifungal activity against Candida albicans 305; assay type: functional
# [15] = test system: Candida albicans; assay: Antifungal activity against Candida albicans 20#; assay type: functional
# [16] = test system: Candida albicans; assay: Antifungal activity against Candida albicans 28#; assay type: functional
# [17] = test system: Candida parapsilosis; assay: Antifungal activity against Candida parapsilosis 660; assay type: functional; details: Lodderomyces parapsilosis
# [18] = test system: Candida parapsilosis; assay: Antifungal activity against Candida parapsilosis 90018; assay type: functional; details: Lodderomyces parapsilosis
# [19] = test system: Candida parapsilosis; assay: Antifungal activity against Candida parapsilosis 700; assay type: functional; details: Lodderomyces parapsilosis
# [20] = test system: Candida tropicalis; assay: Antifungal activity against Candida tropicalis 112936; assay type: functional
# [21] = test system: Candida tropicalis; assay: Antifungal activity against Candida tropicalis ATCC750; assay type: functional
# [22] = test system: Pichia kudriavzevii; assay: Antifungal activity against Candida krusei 463; assay type: functional
# [23] = test system: Pichia kudriavzevii; assay: Antifungal activity against Candida krusei 629; assay type: functional
# [24] = test system: Pichia kudriavzevii; assay: Antifungal activity against Candida krusei 397; assay type: functional
# [25] = test system: Pichia kudriavzevii; assay: Antifungal activity against Candida krusei 467; assay type: functional
# [26] = test system: Nakaseomyces glabratus; assay: Antifungal activity against Candida glabrata ATCC2001; assay type: functional
# [27] = test system: [Candida] auris; assay: Antifungal activity against Candida auris 791; assay type: functional; details: Candidozyma auris
# [28] = test system: [Candida] auris; assay: Antifungal activity against Candida auris BS12372; assay type: functional; details: Candidozyma auris
# [29] = test system: [Candida] auris; assay: Antifungal activity against Candida auris 887; assay type: functional; details: Candidozyma auris
# [30] = test system: [Candida] auris; assay: Antifungal activity against Candida auris D12; assay type: functional; details: Candidozyma auris
# [31] = Induction of drug resistance in Candida albicans SC5314 assessed as increase in MIC after 2 weeks (reference value: 0.5 microg/ml); assay type: functional; details: SC5314, 336 h
# [32] = Induction of drug resistance in Candida albicans SC5314 assessed as increase in MIC after 26 days; assay type: functional; details: SC5314, 624 h, time 26 day
# [33] = target: T1, Lanosterol 14-alpha demethylase (Candida albicans (strain SC5314 / ATCC MYA-2876) (Yeast), UniProt P10613); assay: Inhibition of CYP51 in Candida albicans SC5314 assessed as lanosterol level at 4 ug/ml measured after 12 hrs by GC-MS analysis (reference value: 2.18%); set-up: scale not given: the % may be the effect or the level left; details: at 4 µg/mL
# T1 sequence (P10613 whole entry): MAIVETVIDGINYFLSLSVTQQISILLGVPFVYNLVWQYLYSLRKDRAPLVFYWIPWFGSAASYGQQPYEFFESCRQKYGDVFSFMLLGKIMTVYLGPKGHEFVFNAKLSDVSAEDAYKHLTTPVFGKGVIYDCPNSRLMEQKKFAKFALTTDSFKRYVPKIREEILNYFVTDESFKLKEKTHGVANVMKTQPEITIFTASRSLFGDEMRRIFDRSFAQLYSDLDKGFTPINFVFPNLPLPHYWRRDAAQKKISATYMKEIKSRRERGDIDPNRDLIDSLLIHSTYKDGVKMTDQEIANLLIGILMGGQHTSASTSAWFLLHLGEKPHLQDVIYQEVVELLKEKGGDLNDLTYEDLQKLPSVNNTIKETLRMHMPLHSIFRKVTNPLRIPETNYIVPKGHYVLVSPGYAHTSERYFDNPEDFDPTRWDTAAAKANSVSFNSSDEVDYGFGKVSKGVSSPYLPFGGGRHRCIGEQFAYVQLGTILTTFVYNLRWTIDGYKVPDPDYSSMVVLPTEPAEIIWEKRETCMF
# [34] = target: T1, Lanosterol 14-alpha demethylase; assay: Inhibition of CYP51 in Candida albicans SC5314 assessed as lanosterol level at 0.5 ug/ml measured after 12 hrs by GC-MS analysis (reference value: 2.18%); set-up: scale not given: the % may be the effect or the level left; details: at 0.5 µg/mL
# [35] = target: T1, Lanosterol 14-alpha demethylase; assay: Inhibition of CYP51 in Candida albicans SC5314 assessed as ergosterol level at 4 ug/ml measured after 12 hrs by GC-MS analysis (reference value: 72.58%); set-up: scale not given: the % may be the effect or the level left; details: at 4 µg/mL
# [36] = target: T1, Lanosterol 14-alpha demethylase; assay: Inhibition of CYP51 in Candida albicans SC5314 assessed as eburicol level at 4 ug/ml measured after 12 hrs by GC-MS analysis (reference value: 0.00%); set-up: scale not given: the % may be the effect or the level left; details: at 4 µg/mL
# [37] = target: T1, Lanosterol 14-alpha demethylase; assay: Inhibition of CYP51 in Candida albicans SC5314 assessed as eburicol level at 0.5 ug/ml measured after 12 hrs by GC-MS analysis (reference value: 0.00%); set-up: scale not given: the % may be the effect or the level left; details: at 0.5 µg/mL
# [38] = target: T1, Lanosterol 14-alpha demethylase; assay: Inhibition of CYP51 in Candida albicans SC5314 assessed as sterol level at 4 ug/ml measured after 12 hrs by GC-MS analysis (reference value: 25.23%); set-up: scale not given: the % may be the effect or the level left; details: at 4 µg/mL
# [39] = target: T1, Lanosterol 14-alpha demethylase; assay: Inhibition of CYP51 in Candida albicans SC5314 assessed as sterol level at 0.5 ug/ml measured after 12 hrs by GC-MS analysis (reference value: 25.23%); set-up: scale not given: the % may be the effect or the level left; details: at 0.5 µg/mL
# [40] = test system: Candida albicans; assay: Antifungal activity against Candida albicans SC5314 infected in ICR mouse assessed as delay in mortality at 0.5 mg/kg, po qd infected with fungus for 2 hrs prior to compound addition for 7 days and measured for 20 days; assay type: functional, organism-based; details: time 20.0 day
# [41] = test system: Candida albicans; assay: Antifungal activity against Candida albicans SC5314 infected in ICR mouse assessed as median survival time at 0.5 mg/kg, po qd infected with fungus for 2 hrs prior to compound addition for 7 days and measured for 20 days; assay type: functional; details: time 20 day
# [42] = test system: Cryptococcus neoformans; assay: Antifungal activity against Cryptococcus neoformans H99 infected in ICR mouse assessed as delay in mortality at 2 mg/kg, po qd infected with fungus for 2 hrs prior to compound addition for 7 days and measured for 20 days; assay type: functional, organism-based; details: time 20.0 day
# [43] = test system: Cryptococcus neoformans; assay: Antifungal activity against Cryptococcus neoformans H99 infected in ICR mouse assessed as median survival time at 2 mg/kg, po qd infected with fungus for 2 hrs prior to compound addition for 7 days and measured for 20 days; assay type: functional; details: time 20 day
# [44] = test system: Candida albicans; assay: Antifungal activity against Candida albicans 100 infected in ICR mouse assessed as delay in mortality at 0.25 mg/kg, po qd infected with fungus for 2 hrs prior to compound addition for 7 days and measured for 20 days; assay type: functional, organism-based; details: time 20.0 day
# [45] = test system: Candida albicans; assay: Antifungal activity against Candida albicans 100 infected in ICR mouse assessed as median survival time at 0.25 mg/kg, po qd infected with fungus for 2 hrs prior to compound addition for 7 days and measured for 20 days; assay type: functional; details: time 20 day
# [46] = Cytotoxicity against HUVEC assessed as cell viability at 64 ug/ml incubated for 24 hrs by CCK-8 assay; assay type: toxicity, cell-based; details: human, HUVEC cells, at 64 µg/mL, read-out: Activity
# [47] = Induction of hemolysis in rabbit RBC at 64 ug/ml incubated for 1 hr; assay type: toxicity, cell-based, Oryctolagus cuniculus, Erythrocyte; details: red blood cells, at 64 µg/mL, read-out: Activity
# [48] = in vitro; details: human, Caco-2 cells; at 64 µg/mL
structure (smiles),measurement,setting,value
OC(Cn1cncn1)(Cn1cncn1)c1ccc(F)cc1F [FLUCONAZOLE],MIC,[1],0.5 µg/mL
same,MIC,[2],0.5 µg/mL
same,MIC,[3],> 64 µg/mL
same,MIC,[4],0.25 µg/mL
same,MIC,[5],2 µg/mL
same,MIC,[6],0.5 µg/mL
same,MIC,[7],2 µg/mL
same,MIC,[8],8 µg/mL
same,MIC,[9],32 µg/mL
same,MIC,[10],> 64 µg/mL
same,MIC,[11],> 64 µg/mL
same,MIC,[12],> 64 µg/mL
same,MIC,[13],> 64 µg/mL
same,MIC,[14],> 64 µg/mL
same,MIC,[15],0.5 µg/mL
same,MIC,[16],2 µg/mL
same,MIC,[17],0.5 µg/mL
same,MIC,[18],0.5 µg/mL
same,MIC,[19],2 µg/mL
same,MIC,[20],> 64 µg/mL
same,MIC,[21],> 64 µg/mL
same,MIC,[22],4 µg/mL
same,MIC,[23],4 µg/mL
same,MIC,[24],2 µg/mL
same,MIC,[25],4 µg/mL
same,MIC,[26],2 µg/mL
same,MIC,[27],> 64 µg/mL
same,MIC,[28],> 64 µg/mL
same,MIC,[29],> 64 µg/mL
same,MIC,[30],> 64 µg/mL
same,MIC,[31],4 µg/mL
same,MIC,[32],16 µg/mL
same,Activity,[33],5.73%
same,Activity,[34],18.14%
same,Activity,[35],0.62%
same,Activity,[36],87.88%
same,Activity,[37],2.61%
same,Activity,[38],5.77%
same,Activity,[39],4.69%
same,Activity,[40],Active
same,Time,[41],14 days
same,Activity,[42],Active
same,Time,[43],8.5 days
same,Activity,[44],Active
same,Time,[45],8.5 days
same,"viability at 24 h, 64 ug/ml",[46],88.4%
same,"hemolysis at 1 h, 64 ug/ml",[47],1.01%
same,"viability at 24 h, 64 ug/ml",[48],101%
